# In ChEMBL document CHEMBL1208782, “Synthesis and pharmacological validation of a novel series of non-steroidal FXR agonists” (Bioorg Med Chem Lett, 2010):
# Tests used:
# [1] = biological target: T1, Bile acid receptor (Homo sapiens) (UniProt Q96RI1); experiment: Agonist activity at human GST-fused FXR LBD assessed as cofactor peptide interaction with receptor ligand binding domain by FRET assay relative to GW-4064
# T1 sequence (whole entry): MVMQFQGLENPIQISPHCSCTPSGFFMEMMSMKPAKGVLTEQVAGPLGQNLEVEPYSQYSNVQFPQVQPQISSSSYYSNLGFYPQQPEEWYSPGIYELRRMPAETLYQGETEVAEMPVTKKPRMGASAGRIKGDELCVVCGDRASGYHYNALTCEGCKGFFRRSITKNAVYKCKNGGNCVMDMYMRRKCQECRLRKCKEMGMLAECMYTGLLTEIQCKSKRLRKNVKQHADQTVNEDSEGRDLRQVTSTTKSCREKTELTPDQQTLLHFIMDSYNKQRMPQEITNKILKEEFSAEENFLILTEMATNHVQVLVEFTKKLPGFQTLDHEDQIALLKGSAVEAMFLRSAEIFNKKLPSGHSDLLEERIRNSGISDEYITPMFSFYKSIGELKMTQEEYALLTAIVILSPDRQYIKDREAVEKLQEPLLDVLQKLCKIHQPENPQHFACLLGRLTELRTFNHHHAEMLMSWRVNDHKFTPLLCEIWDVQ
# Bile acid receptor = biological target: T2, Bile acid receptor (Homo sapiens, UniProt Q96RI1); experiment: Agonist activity at human […] FXR LBD expressed in HEK293 cells coexpressing GAL4-DNA bindig domain and pFRluc by mammalian one-hybrid assay; format: functional, cell-based; conditions: read-out: EC50
# T2 sequence (Q96RI1 whole entry): T1 sequence (whole entry)
# Androgen receptor = biological target: T3, Androgen receptor (Homo sapiens, UniProt P10275); experiment: Agonist activity at androgen receptor-LBD expressed in HEK293 cells assessed as Gal4-DBD interaction by cellular mammalian one hybrid assay; format: functional, cell-based
# T3 sequence (P10275 whole entry): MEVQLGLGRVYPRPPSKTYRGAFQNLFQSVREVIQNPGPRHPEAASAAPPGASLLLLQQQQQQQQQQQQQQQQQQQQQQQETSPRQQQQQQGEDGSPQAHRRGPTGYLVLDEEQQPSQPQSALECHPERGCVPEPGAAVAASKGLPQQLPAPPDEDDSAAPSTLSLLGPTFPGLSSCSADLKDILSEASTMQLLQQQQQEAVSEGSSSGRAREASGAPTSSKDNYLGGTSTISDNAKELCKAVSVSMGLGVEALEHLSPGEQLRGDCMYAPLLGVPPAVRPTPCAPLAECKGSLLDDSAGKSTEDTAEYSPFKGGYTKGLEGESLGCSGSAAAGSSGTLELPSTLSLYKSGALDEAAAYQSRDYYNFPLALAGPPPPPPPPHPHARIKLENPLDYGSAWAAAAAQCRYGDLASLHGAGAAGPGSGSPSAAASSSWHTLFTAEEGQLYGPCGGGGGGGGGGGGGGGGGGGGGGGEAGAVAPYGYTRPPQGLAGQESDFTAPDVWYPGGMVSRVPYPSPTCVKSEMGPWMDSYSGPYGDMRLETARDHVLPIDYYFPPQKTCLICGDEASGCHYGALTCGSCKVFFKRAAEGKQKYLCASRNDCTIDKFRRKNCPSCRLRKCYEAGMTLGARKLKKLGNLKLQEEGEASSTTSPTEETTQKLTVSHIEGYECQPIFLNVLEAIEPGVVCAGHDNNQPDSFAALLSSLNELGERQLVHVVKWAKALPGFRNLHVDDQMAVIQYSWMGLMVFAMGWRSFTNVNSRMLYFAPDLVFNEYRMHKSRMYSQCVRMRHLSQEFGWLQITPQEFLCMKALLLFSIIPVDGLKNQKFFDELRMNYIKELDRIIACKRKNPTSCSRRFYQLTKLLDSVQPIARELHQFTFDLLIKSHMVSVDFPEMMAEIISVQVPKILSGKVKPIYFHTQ
# Vitamin D3 receptor = biological target: T4, Vitamin D3 receptor (Homo sapiens, UniProt P11473); experiment: Agonist activity at VDR-LBD expressed in HEK293 cells assessed as Gal4-DBD interaction by cellular mammalian one hybrid assay; format: functional, cell-based
# T4 sequence (P11473 whole entry): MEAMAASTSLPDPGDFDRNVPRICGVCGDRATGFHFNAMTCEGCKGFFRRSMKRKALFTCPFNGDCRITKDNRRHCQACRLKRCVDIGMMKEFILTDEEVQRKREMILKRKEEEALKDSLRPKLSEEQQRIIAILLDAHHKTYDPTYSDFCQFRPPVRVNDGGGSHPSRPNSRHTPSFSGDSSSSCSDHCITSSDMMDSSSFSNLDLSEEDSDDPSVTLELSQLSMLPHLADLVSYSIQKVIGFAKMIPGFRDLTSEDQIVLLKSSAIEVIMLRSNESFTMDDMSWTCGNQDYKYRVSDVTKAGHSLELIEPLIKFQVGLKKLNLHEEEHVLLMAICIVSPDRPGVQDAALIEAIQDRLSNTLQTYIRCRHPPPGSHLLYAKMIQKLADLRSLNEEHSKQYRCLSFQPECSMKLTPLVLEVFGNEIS
# [2] = biological target: T5, Retinoic acid receptor RXR-alpha (Homo sapiens) (UniProt P19793); experiment: Agonist activity at RXRalpha-LBD expressed in HEK293 cells assessed as Gal4-DBD interaction by cellular mammalian one hybrid assay relative to retinoic acid; format: functional, cell-based
# T5 sequence (whole entry): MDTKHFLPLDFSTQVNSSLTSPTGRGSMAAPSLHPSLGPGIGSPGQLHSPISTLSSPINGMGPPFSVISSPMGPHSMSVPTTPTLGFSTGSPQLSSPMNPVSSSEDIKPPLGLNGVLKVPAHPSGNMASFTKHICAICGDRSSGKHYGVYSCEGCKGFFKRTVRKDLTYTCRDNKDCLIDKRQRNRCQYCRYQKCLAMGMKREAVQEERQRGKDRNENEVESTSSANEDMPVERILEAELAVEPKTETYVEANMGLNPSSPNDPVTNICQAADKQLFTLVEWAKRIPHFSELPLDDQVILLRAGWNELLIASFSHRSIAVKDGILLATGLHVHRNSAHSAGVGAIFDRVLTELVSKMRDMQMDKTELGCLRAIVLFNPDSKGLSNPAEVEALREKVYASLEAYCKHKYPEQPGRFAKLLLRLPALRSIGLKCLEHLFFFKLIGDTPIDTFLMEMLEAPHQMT
Efficacy [1] [%],EC50 (Bile acid receptor) [µM],EC50 (Androgen receptor) [µM],EC50 (Vitamin D3 receptor) [µM],Efficacy [2] [%],Structure (SMILES)
102,0.009,> 10,> 10,0,CN(Cc1cccc(C(=O)O)c1)c1ccc(OCc2c(-c3c(Cl)cccc3Cl)noc2C2CC2)nc1C(F)(F)F
109,0.03,> 10,> 10,0,CN(Cc1ccc(C(=O)O)cc1)c1ccc(OCc2c(-c3c(Cl)cccc3Cl)noc2C2CC2)nc1C(F)(F)F
97,0.09,> 10,> 10,0,CC(C)c1onc(-c2c(Cl)cccc2Cl)c1COc1ccc(N(C)Cc2ccc(C(=O)O)cc2)c(C(F)(F)F)n1
